≈ marks a conversion by molar mass, not a printed value. Calls of active or inactive are those of the source. The calls are words filed in the database; no cut-off is given here.
Assays:
[1] = target: Cytochrome P450 2C9 (Homo sapiens, UniProt P11712); assay: Inhibition of CYP2C9; format: ADME
[2] = tested on: Mus musculus; assay: Decrease in lymphocyte count in mouse acute lymphopenia model at 1 mg/kg, po after 24 hrs by flow cytometry relative to base line; format: functional; parameters: scale not given: the % may be the effect or the level left
[3] = Oral bioavailability in mouse; format: ADME, organism-based; conditions: in vivo
[4] = Solubility of the compound; format: physicochemical
[5] = target: Sphingosine 1-phosphate receptor 3 (Homo sapiens, UniProt Q99500); assay: Agonist activity against S1P3 receptor by cell based FRET assay; format: functional
[6] = Percentage unbound in human plasma; format: ADME, cell-free
[7] = Half life in mouse; format: ADME, organism-based; conditions: in vivo
[8] = Ratio of drug level in brain to blood in C57BL/6 mouse at 2 mg/kg, ip after 4 hrs; format: ADME, organism-based; parameters: dose 2 mg/kg, route intraperitoneal
[9] = tested on: Mus musculus; assay: Decrease in lymphocyte count in mouse acute lymphopenia model at 1 mg/kg, po after 4 hrs by flow cytometry relative to base line; format: functional; parameters: scale not given: the % may be the effect or the level left
[10] = tested on: Mus musculus; assay: Antiinflammatory activity in C57BL/6 mouse EAE model assessed as decrease in clinical symptoms at 1 mg/kg, po administered qd after 10 days post immunization; format: functional, organism-based; parameters: dose 1 mg/kg
[11] = target: Sphingosine 1-phosphate receptor 1 (Homo sapiens, UniProt P21453); assay: Agonist activity against S1P1 receptor by cell based FRET assay; format: functional
[12] = Ratio of drug level in brain to blood in C57BL/6 mouse at 2 mg/kg, ip after 1 hr; format: ADME, organism-based; parameters: dose 2 mg/kg, route intraperitoneal
[13] = AUC (0 to 24 hrs) in mouse; format: ADME, organism-based; parameters: time < 24 hr; conditions: plasma
[14] = Permeability of the compound; format: ADME; conditions: not told; read-out: permeability
[15] = species on record: Homo sapiens; assay: Selectivity ratio of EC50 for S1P3 receptor to EC50 for S1P1 receptor
[16] = Percentage unbound in rat plasma; format: ADME, cell-free

Chain of Sphingosine 1-phosphate receptor 1 (P21453 whole entry): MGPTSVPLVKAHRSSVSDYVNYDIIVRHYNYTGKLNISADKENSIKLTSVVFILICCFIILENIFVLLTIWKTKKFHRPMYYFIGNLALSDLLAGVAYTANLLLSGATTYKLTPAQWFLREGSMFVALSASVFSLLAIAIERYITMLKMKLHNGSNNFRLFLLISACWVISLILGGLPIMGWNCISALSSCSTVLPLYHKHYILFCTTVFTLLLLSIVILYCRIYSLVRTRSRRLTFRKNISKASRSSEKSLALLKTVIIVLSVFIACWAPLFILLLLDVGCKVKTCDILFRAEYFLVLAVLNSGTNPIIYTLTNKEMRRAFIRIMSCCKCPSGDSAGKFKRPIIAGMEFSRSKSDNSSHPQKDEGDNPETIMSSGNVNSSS
Chain of Sphingosine 1-phosphate receptor 3 (Q99500 whole entry): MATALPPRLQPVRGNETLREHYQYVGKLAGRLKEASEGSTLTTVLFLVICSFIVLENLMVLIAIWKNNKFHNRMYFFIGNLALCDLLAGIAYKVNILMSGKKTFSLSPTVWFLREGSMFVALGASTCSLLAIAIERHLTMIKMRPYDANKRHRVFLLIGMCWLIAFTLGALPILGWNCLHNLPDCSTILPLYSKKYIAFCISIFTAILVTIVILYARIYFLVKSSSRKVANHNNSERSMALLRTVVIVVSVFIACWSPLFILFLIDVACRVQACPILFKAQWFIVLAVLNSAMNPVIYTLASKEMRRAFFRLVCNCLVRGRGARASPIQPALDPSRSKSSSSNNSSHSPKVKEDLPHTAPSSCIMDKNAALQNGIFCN
Chain of Cytochrome P450 2C9 (P11712 whole entry): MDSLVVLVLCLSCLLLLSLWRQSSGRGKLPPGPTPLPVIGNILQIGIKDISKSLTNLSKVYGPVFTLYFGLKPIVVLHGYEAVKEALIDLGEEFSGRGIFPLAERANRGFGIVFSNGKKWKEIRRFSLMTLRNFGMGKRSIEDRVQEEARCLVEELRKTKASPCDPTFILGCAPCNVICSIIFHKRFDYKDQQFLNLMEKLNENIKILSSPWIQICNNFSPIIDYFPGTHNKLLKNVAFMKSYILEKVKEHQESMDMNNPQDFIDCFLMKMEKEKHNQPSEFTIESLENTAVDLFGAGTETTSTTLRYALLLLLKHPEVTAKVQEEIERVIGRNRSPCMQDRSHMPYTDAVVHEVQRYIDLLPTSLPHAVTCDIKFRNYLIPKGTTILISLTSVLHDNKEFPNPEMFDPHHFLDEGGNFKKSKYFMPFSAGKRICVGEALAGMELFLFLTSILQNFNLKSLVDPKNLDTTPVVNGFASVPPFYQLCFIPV

Row | Compound | EC50 [5] | fraction unbound [6] | EC50 [11] | Ratio EC50 [15] | other results
1 | CCc1c(CCCC(=O)O)cccc1-c1nsc(-c2ccc(OC(C)C)c(C#N)c2)n1 | > 10000 nM | 0.0021 | 2.51 nM |  | IC50 [1]: 5010 nM; Activity [2]: 87.9%; bioavailability [3]: 87%; solubility [4]: 160 µg/mL (≈ 367 µM); half-life [7]: 1.5 h; Kp at 4 h [8]: 0.52; Activity [9]: 22.7%; Activity [10]: Active; Kp at 1 h [12]: 0.36; AUC(0-t) at 24 h [13]: 2600 ng·h/mL; Papp [14]: 32 ×10⁻⁶ cm/s
2 | CCc1c(-c2nsc(-c3ccc(CC(C)C)c(C#N)c3)n2)ccnc1CCCC(=O)O |  | 0.0019 | 158 nM |  | 
3 | CCCCCCCCc1ccc(CCC(N)(CO)CO)cc1 |  |  |  |  | Activity [10]: Active
4 | CCc1c(CCN2CC(C(=O)O)C2)cccc1-c1nsc(-c2ccc(OC(C)C)c(C(F)(F)F)c2)n1 | 3160 nM | 0.0025 | 0.251 nM | > 1000 | 
5 | CCc1c(CCCC(=O)O)cccc1-c1nsc(-c2ccc(-c3ccccc3)c(C(F)(F)F)c2)n1 |  |  | 5.01 nM |  | 
6 | CCc1c(CN(C)CC(=O)O)cccc1-c1nsc(-c2ccc(OC(C)C)c(C(F)(F)F)c2)n1 | > 10000 nM | 0.0049 | 10 nM | > 1000 | 
7 | CCc1c(CCCC(=O)O)cccc1-c1cnc(-c2ccc(OC(C)C)c(C#N)c2)[nH]1 |  |  | > 10000 nM |  | 
8 | CCc1c(CN2CC(C(=O)O)C2)cccc1-c1nsc(-c2ccc(CC(C)C)c(C#N)c2)n1 | > 3160 nM | 0.0128 | 7.94 nM | > 1000 | 
9 | CCc1c(CCN2CC(C(=O)O)C2)cccc1-c1nsc(-c2ccc(CC(C)C)c(C#N)c2)n1 | 2510 nM | 0.0071 | 0.794 nM | > 1000 | 
10 | CCc1c(CCCC(=O)O)cccc1-c1ncc(-c2ccc(OC(C)C)c(C#N)c2)cn1 |  |  | 25.1 nM |  | 
11 | CCc1c(CCCC(=O)O)cncc1-c1nsc(-c2ccc(OC(C)C)c(Cl)c2)n1 |  | 0.0019 | 251 nM |  | 
12 | CCc1c(CCCC(=O)O)cccc1-c1ccc(-c2ccc(OC(C)C)c(C#N)c2)cc1 | > 10000 nM |  | 1.58 nM |  | IC50 [1]: 3980 nM; solubility [4]: 154 µg/mL (≈ 360 µM); Kp at 4 h [8]: 0.95; fraction unbound [16]: 0.0001; Kp at 1 h [12]: 0.93; Papp [14]: 31 ×10⁻⁶ cm/s
13 | CCc1c(CCCC(=O)O)cccc1-c1nsc(-c2ccc(OC(C)C)c(C(F)(F)F)c2)n1 |  | 0.00014 | 2 nM |  | 
14 | CCc1c(CCCC(=O)O)cccc1-c1ccc(-c2ccc(OC(C)C)c(C#N)c2)nn1 |  |  | 631 nM |  | 
15 | CCc1c(CCCC(=O)O)cccc1-c1cnn(-c2ccc(OC(C)C)c(C#N)c2)c1 |  |  | 631 nM |  | 
16 | CCc1c(CCN2CCC(C(=O)O)CC2)cccc1-c1nsc(-c2ccc(OC(C)C)c(C(F)(F)F)c2)n1 | 2510 nM | 0.0017 | 0.1 nM | > 1000 | 
17 | CCc1c(CCCC(=O)O)cccc1-c1cc(-c2ccc(OC(C)C)c(C#N)c2)ncn1 |  |  | > 3160 nM |  | 
18 | CCc1c(CCN(C)CC(=O)O)cccc1-c1nsc(-c2ccc(OC(C)C)c(C(F)(F)F)c2)n1 | > 3160 nM | 0.0021 | 0.02 nM | > 1000 | 
19 | CCc1c(CN2CC(C(=O)O)C2)cccc1-c1nsc(-c2ccc(OC(C)C)c(C(F)(F)F)c2)n1 | 2510 nM | 0.0026 | 0.251 nM | > 1000 | 
20 | CCc1c(CCCC(=O)O)cccc1-c1nsc(-c2ccc(OC(C)C)c(Cl)c2)n1 |  | 0.0015 | 3.98 nM |  | 
21 | CCc1c(CCCC(=O)O)cncc1-c1nsc(-c2ccc(OC(C)C)c(C(F)(F)F)c2)n1 |  | 0.0012 | 25.1 nM |  | 
22 | CCc1c(CCCC(=O)O)cccc1-c1nnc(-c2ccc(OC(C)C)c(C#N)c2)o1 | > 10000 nM |  | 3.16 nM |  | IC50 [1]: 7940 nM; solubility [4]: 187 µg/mL (≈ 446 µM); Kp at 4 h [8]: 0.09; fraction unbound [16]: 0.0021; Kp at 1 h [12]: 0.11; Papp [14]: 24 ×10⁻⁶ cm/s
23 | CCc1c(CN2CC(C(=O)O)C2)cccc1-c1nsc(-c2ccc(OC(C)C)c(Cl)c2)n1 | > 3160 nM | 0.0096 | 3.98 nM | > 1000 | 
24 | CCc1c(CCCC(=O)O)cccc1-c1nccc(-c2ccc(OC(C)C)c(C#N)c2)n1 |  |  | > 3160 nM |  | 
